Measured values taken from patent US11420956B2, “Ureas having Androgen Receptor degradation activity and uses thereof” (ACCUTAR BIOTECHNOLOGY INC., priority 2019, dated 2022).

Target: T1, androgen receptor (AR) (Homo sapiens, UniProt P10275, T878A)
T1 construct: endogenous in cells; host or cells: LNCAP
T1 sequence (P10275 1-920 T878A): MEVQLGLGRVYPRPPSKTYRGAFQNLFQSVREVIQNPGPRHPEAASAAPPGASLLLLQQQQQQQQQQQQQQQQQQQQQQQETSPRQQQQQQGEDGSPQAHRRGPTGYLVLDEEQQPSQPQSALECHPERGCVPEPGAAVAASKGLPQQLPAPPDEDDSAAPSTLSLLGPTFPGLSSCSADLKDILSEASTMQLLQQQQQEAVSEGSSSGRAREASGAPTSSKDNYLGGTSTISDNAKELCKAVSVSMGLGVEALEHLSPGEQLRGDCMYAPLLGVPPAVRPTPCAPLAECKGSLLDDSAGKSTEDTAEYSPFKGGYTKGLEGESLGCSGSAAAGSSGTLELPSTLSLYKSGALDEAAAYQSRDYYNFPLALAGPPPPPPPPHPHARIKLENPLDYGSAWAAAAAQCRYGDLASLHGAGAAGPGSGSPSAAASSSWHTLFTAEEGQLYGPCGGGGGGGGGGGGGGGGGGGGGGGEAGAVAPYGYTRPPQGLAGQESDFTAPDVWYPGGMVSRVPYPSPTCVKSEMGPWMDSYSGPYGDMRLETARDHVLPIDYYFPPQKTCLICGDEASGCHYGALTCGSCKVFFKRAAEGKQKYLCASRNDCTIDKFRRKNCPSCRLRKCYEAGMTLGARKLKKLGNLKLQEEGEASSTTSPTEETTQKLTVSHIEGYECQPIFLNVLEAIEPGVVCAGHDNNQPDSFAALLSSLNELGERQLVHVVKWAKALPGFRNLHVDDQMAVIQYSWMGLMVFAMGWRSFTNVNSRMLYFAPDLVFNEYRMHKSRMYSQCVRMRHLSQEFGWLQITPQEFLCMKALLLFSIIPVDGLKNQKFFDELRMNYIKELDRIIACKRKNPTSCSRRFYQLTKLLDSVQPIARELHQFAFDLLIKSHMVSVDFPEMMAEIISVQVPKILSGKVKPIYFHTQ
Experiment: AR degradation in LNCAP cells (Western blot)
Type: cell-based
Conditions: 24 hours after administration
Description: LNCAP, VCAP and 22Rv1 cells were plated in 24-well plates at 1.5×10E5 cells/well in the RPMI growth medium containing 10% FBS and 1% Penicillin Streptomycin, and then incubated at 37° C. overnight. The following day, the test compound was administered to the cells by using 1000× compound stock solution prepared in DMSO at various concentrations. After administration of the compound, the cells were then incubated at 37° C. for 24 hours. Upon completion, the cells were washed with PBS and protein was collected in Laemmli sample buffer (1×; VWR International). Proteins in cell lysate were separated by SDS-PAGE and transferred to Odyssey nitrocellulose membranes (Licor) with iblot® dry blotting transfer system (ThermoFisher). Nonspecific binding was blocked by incubating membranes with Intercept Blocking Buffer (Licor) for 1 hour at room temperature with gentle shaking. The membranes were then incubated overnight at 4° C. with Primary antibodies rabbit anti-AR (1:1,000, Cell Signaling, 5153) and mouse anti-GAPDH (1:5,000, Santa Cruz Biotechnology, sc-47724) diluted in Intercept Blocking Buffer containing 0.1% Tween 20. After washing 3 times with TBS-T, the membranes were incubated with IRDye® […] goat anti-mouse IgG (1:20,000, Licor) or IRDye® […] goat anti-rabbit IgG (1:20,000, Licor) for 1 hour. After TBS-T washes, membranes were rinsed in TBS and scanned on Odyssey® CLx Imaging System (Licor). The bands were quantified using Image Studio™ Software (Licor).
Tables 5 and 6 summarize the androgen receptor (AR) degradative activity of exemplary compounds in LNCAP, VCAP and 22Rv1 cell lines 24 hours after administration. DC50: compound concentration needed for 50% target protein degradation.

SMILES	DC50
C[C@@H]1CN(c2ccc(C#N)c3ncccc23)[C@@H](C)CN1C(=O)Nc1ccc(N2CCC(CN3CCN(c4ccc5c(c4)CN([C@H]4CCC(=O)NC4=O)C5=O)CC3)CC2)nc1 [Compound 2-11, (2R,5S)-4-(8-cyanoquinolin-5-yl)-N-(6-(4-((4-(2-((S)-2,6-dioxopiperidin-3-yl)-1-oxoisoindolin-5-yl)piperazin-1-yl)methyl)piperidin-1-yl)pyridin-3-yl)-2,5-dimethylpiperazine-1-carboxamide]	> 100 nM
C[C@@H]1CN(c2ccc(C#N)c(Cl)c2)[C@@H](C)CN1C(=O)Nc1ccc(OCCCCN(C)C2CC(Oc3ccc4c(c3)C(=O)N(C3CCC(=O)NC3=O)C4=O)C2)nc1 (stereo partly drawn) [Compound 1-8, (2R,5S)-4-(3-chloro-4-cyanophenyl)-N-(6-(4-(((1r,3r)-3-((2-(2,6-dioxopiperidin-3-yl)-1,3-dioxoisoindolin-5-yl)oxy)cyclobutyl)(methyl)amino)butoxy)pyridin-3-yl)-2,5-dimethylpiperazine-1-carboxamide]	≤ 10 nM
CC(C)N(CC1CCN(c2ccc(NC(=O)N3C[C@H](C)N(c4ccc(C#N)c5ncccc45)C[C@H]3C)cn2)CC1)C1CC(Oc2ccc3c(c2)C(=O)N(C2CCC(=O)NC2=O)C3=O)C1 (stereo partly drawn) [Compound 2-13, (2R,5S)-4-(8-cyanoquinolin-5-yl)-N-(6-(4-((((1r,3r)-3-((2-(2,6-dioxopiperidin-3-yl)-1,3-dioxoisoindolin-5-yl)oxy)cyclobutyl)(isopropyl)amino)methyl)piperidin-1-yl)pyridin-3-yl)-2,5-dimethylpiperazine-1-carboxamide]	> 100 nM
C[C@@H]1CN(c2ccc(C#N)c(C(F)(F)F)c2)[C@@H](C)CN1C(=O)Nc1cnc(N2CCC(CN3CCN(c4ccc5c(c4)CN([C@H]4CCC(=O)NC4=O)C5=O)CC3)CC2)nc1 [Compound 1-49, (2R,5S)-4-(4-cyano-3-(trifluoromethyl)phenyl)-N-(2-(4-((4-(2-((S)-2,6-dioxopiperidin-3-yl)-1-oxoisoindolin-5-yl)piperazin-1-yl)methyl)piperidin-1-yl)pyrimidin-5-yl)-2,5-dimethylpiperazine-1-carboxamide]	≤ 10 nM
C[C@@H]1CN(c2ccc(C#N)c(Cl)c2)[C@@H](C)CN1C(=O)Nc1ccc(N2CCC(CN3CCN(c4ccc5c(c4)CN([C@H]4CCC(=O)NC4=O)C5=O)CC3)CC2)nc1 [Compound 1-44, (2R,5S)-4-(3-chloro-4-cyanophenyl)-N-(6-(4-((4-(2-((S)-2,6-dioxopiperidin-3-yl)-1-oxoisoindolin-5-yl)piperazin-1-yl)methyl)piperidin-1-yl)pyridin-3-yl)-2,5-dimethylpiperazine-1-carboxamide]	≤ 10 nM
C[C@H]1CN(C(=O)Nc2cnc(N3CCC(CN4CCN(c5ccc6c(c5)C(=O)N(C5CCC(=O)NC5=O)C6=O)CC4)CC3)nc2)CCN1c1ccc(C#N)c2ncccc12 (stereo partly drawn) [Compound 2-16, (3S)-4-(8-cyanoquinolin-5-yl)-N-(2-(4-((4-(2-(2,6-dioxopiperidin-3-yl)-1,3-dioxoisoindolin-5-yl)piperazin-1-yl)methyl)piperidin-1-yl)pyrimidin-5-yl)-3-methylpiperazine-1-carboxamide]	> 100 nM
CC(C)N(CC1CCN(c2ccc(NC(=O)N3C[C@H](C)N(c4ccc(C#N)c(Cl)c4)C[C@H]3C)cn2)CC1)C1CC(Oc2ccc3c(c2)C(=O)N(C2CCC(=O)NC2=O)C3=O)C1 (stereo partly drawn) [Compound 1-12, (2R,5S)-4-(3-chloro-4-cyanophenyl)-N-(6-(4-((((1s,3s)-3-((2-(2,6-dioxopiperidin-3-yl)-1,3-dioxoisoindolin-5-yl)oxy)cyclobutyl)(isopropyl)amino)methyl)piperidin-1-yl)pyridin-3-yl)-2,5-dimethylpiperazine-1-carboxamide]	10 to 100 nM
